# Reference: patent publication US20190194621A1, “MEDIUM FOR CULTURING STEM CELLS, METHOD FOR CULTURING STEM CELLS, GROWTH PROMOTER FOR STEM CELLS, AND CELL COMPOSITION AND METHOD FOR PRODUCING SAME” (KYOWA HAKKO BIO CO., LTD., priority 2016, published 2019)
# Tested on: human iPS cell 253G1 cell line
# Assay: Culture of human iPS cells in growth-factor-free medium with added compound; count of Hoechst-stained nuclei and OCT3/4 positive cells
# Type: cell-based
# Conditions: for number of nuclei counted, increase as compared with the medium to which no growth factor was added (−GF) / expression ratio of OCT3/4 (proportion of Oct3/4 positive cells among Hoechst 33342 stained cells): 5 μM HA100, 0.05 μM DZNep or 0.01 nM TTNPB in growth-factor-free medium; for number of nuclei counted, increase as compared with the medium to which no growth factor was added (−GF): 3 days, 37° C., 10% CO2, average of four experiments; for expression ratio of OCT3/4 (proportion of Oct3/4 positive cells among Hoechst 33342 stained cells): +GF = 2 ng/mL activin A and 5 ng/mL bFGF
# Experimental: A medium obtained by adding and dissolving separate components shown in the following Table 1 sterilized through a 0.22 μm filter, 10 μg/mL insulin (manufactured by Sigma-Aldrich Co. LLC.), 5 μg/mL apotransferrin (manufactured by Sigma-Aldrich Co. LLC.), and oleic acid-conjugated recombinant human serum albumin (manufactured by Sigma-Aldrich Co. LLC.) in a known medium (mESF Basal Medium, manufactured by Wako Pure Chemical Industries, Ltd.) was used as a medium in a negative control group. A medium obtained by adding 5 μM HA100 that is a ROCK inhibitor and a PKC inhibitor, 0.05 μM DZNep that is a histone methyltransferase inhibitor, or 0.01 nM TTNPB that is a retinoic acid receptor agonist to the medium of the negative control group was used as a medium in an evaluation target group. Further, a medium obtained by adding 2 ng/mL activin A (manufactured by Wako Pure Chemical Industries, Ltd.) and 5 ng/mL bFGF (manufactured by Wako Pure Chemical Industries, Ltd.) to the medium of the negative control group was used as a medium of a positive control group. The prepared medium in the negative control group, media in the evaluation target group (the medium obtained by adding HA100 to the medium in the negative control group, the medium obtained by adding DZNep to the medium in the negative control group, and the medium obtained by adding TTNPB to the medium in the negative control group), and medium in the positive control group were added to a 24-well plate for cell culture (manufactured by Sumitomo Bakelite Company Limited) at 1 mL/well, and a human iPS cell 253G1 cell line (established by Center for iPS Cell Research and Application, Kyoto University and obtained from iPS Academia Japan, Inc.) was cultured in the presence of 10% CO2 at 37° C. for 3 days. With respect to the cultured cells, the nuclei were stained with Hoechst 33342 (manufactured by Dojindo Laboratories). Further, OCT3/4 protein in the cells was stained with OCT-3/4 antibody C-10 (manufactured by Santa Cruz Biotechnology) and […] anti-mouse IgG (H+L) Secondary Antibod Alexa Fluor 488 conjugate (manufactured by Invitorogen Co.). Thereafter, the number of stained nuclei and the number of Oct3/4 positive cells were counted using In cell analyzer (manufactured by GE Healthcare, Inc.).
compound,measurement,setting,value
"Nc1nccc2c1ncn2C1C=C(CO)C(O)C1O (stereo not shown) [DZNep, 3-deazaneplanocin]","number of nuclei counted, increase as compared with the medium to which no growth factor was added (−GF)",,1.35 times
same,expression ratio of OCT3/4 (proportion of Oct3/4 positive cells among Hoechst 33342 stained cells),3 days culture,95.6%
"Cl.O=S(=O)(c1cccc2cnccc12)N1CCNCC1 [HA100, 1-(5-isoquinolinesulfonyl)piperazine hydrochloride]","number of nuclei counted, increase as compared with the medium to which no growth factor was added (−GF)",,1.83 times
same,expression ratio of OCT3/4 (proportion of Oct3/4 positive cells among Hoechst 33342 stained cells),3 days culture,89.3%
same,growth compared with the medium to which a growth factor was added (+GF),"5 μM HA100 in growth-factor-free medium, 3 days culture",growth comparable to that in the case of using the medium to which a growth factor was added
"C/C(=C\c1ccc(C(=O)O)cc1)c1ccc2c(c1)C(C)(C)CCC2(C)C [TTNPB, 4-[(E)-2-(5,6,7,8-tetrahydro-5,5,8,8-tetramethyl-2-naphthalenyl)-1-propenyl]benzoic acid]","number of nuclei counted, increase as compared with the medium to which no growth factor was added (−GF)",,1.24 times
same,expression ratio of OCT3/4 (proportion of Oct3/4 positive cells among Hoechst 33342 stained cells),3 days culture,84.2%
